Data taken from patent publication US20130136794A1, “HETEROARYL (ALKYL) DITHIOCARBAMATE COMPOUNDS, PREPARATION METHODS AND USES THEREOF” (PEKING UNIVERSITY, priority 2010, published 2013).

Experiments:
[1] = tested on: BGC-823 human gastric cancer; experiment: Inhibition of tumor cell proliferation at 10 μM, Model B: SRB method; format: cell-based; conditions: BGC-823, SRB method, read-out: Model B Inhibitory rate (%)
Description: (§1) The evaluation of the compounds according to the present invention on the inhibition rate of the proliferation of four different tumor cells, using the routine method for anti-tumor activity tests in the pharmaceutical filed, for example the method described in the following literature: (J. Immuno/Method, 1983, 65, 55).

[2] = tested on: HL-60 human leukaemia; experiment: Inhibition of tumor cell proliferation at 10 μM, Model A: MTT method; format: cell-based; conditions: HL-60, MTT method, read-out: Model A Inhibitory rate (%)
Description: as §1

[3] = tested on: KB human nasopharyngeal cancer; experiment: Inhibition of tumor cell proliferation at 10 μM, Model D: SRB method; format: cell-based; conditions: read-out: Model D Inhibitory rate (%)
Description: as §1

[4] = tested on: Bel-7402 human liver cancer; experiment: Inhibition of tumor cell proliferation at 10 μM, Model C: SRB method; format: cell-based; conditions: Bel-7402, SRB method, read-out: Model C Inhibitory rate (%)
Description: as §1

[5] = tested on: SK-BR-3 (cell line of erbB2 over-expression); experiment: MTT assay on erbB2 over-expressing cell line (72 h); format: cell-based; conditions: Homo sapiens, SK-BR-3, 72 h, read-out: SK-BR-3 (μM), EC50
Experimental: (§2) Experimental operations: Human breast cancer SK-BR-3, MDA-MB-468 cells and human colon cancer HCT 116 cells were cultured in vitro. The cells were collected after growth to logarithmic phase, and centrifugated at 1000 rpm for 5 min. The supernatant was discarded, and the cells were suspended with an appropriate amount of medium. The cell concentration was adjusted to 3.5×10^3/mL. Then the cells were seeded into 96-well culture plates in 100 μL per well, and placed in an incubator (37° C., 5% CO2) to be incubated for 24 h. The testing drugs were added, and the negative control group was added DMSO with the final concentration of 5%. Each group has three parallel wells. After being incubated in the incubator for 72 h, 20 μL of 5 mg/mL MTT was added into each well, and the plate was placed at 37° C. for 4 h. 200 μL of DMSO was added into each well, and then the plate was oscillated in an oscillator for 30 min. […] The EC50 values were calculated by using Prism Graphpad statistical software.

[6] = tested on: HCT 116 (cell line of low-expression of both EGFR and erbB2); experiment: MTT assay on control cell line with low EGFR and erbB2 expression (72 h); format: cell-based; conditions: Homo sapiens, HCT-116, 72 h, read-out: HCT 116 (μM), EC50
Experimental: as §2

[7] = tested on: MDA-MB-468 (cell line of EGFR over-expression); experiment: MTT assay on EGFR over-expressing cell line (72 h); format: cell-based; conditions: Homo sapiens, MDA-MB-468, 72 h, read-out: MDA-MB-468 (μM), EC50
Experimental: as §2

| SMILES | inhibition at 10 µM [1] [%] | inhibition at 10 µM [2] [%] | melting point [°C] | inhibition at 10 µM [3] [%] | inhibition at 10 µM [4] [%] | EC50 [5] [µM] | EC50 [6] [µM] | EC50 [7] [µM] |
| --- | --- | --- | --- | --- | --- | --- | --- | --- |
| [O-][S+](CCSC(=S)NCc1ccco1)Cc1ccccc1 (stereo not shown) [Compound 8, 2-(benzylsulfinyl)ethyl(furan-2-ylmethyl)dithiocarbamate] | 12.3 | 20.9 | 51 to 52 | 10.5 | 56.9 | – | – | – |
| OB(O)CCSC(=S)NCc1cccnc1 [Compound 14, 2-boronoethyl(pyridin-3-ylmethyl)dithiocarbamate] | 68.6 | 41.4 | 49 to 50 | 94.5 | 91 | – | – | – |
| CC1=CSC(=S)N(Cc2ccco2)C1(C)O (stereo not shown) [Compound 4, 3-(furan-2-ylmethyl)-4-hydroxy-4,5-dimethyl-3,4-dihydro-2H-1,3-thiazine-2-thione] | 15.2 | 23.7 | 88 to 89 | 5.76 | 2.91 | – | – | – |
| CC1=CSC(=S)N(Cc2cccnc2)C1(C)O (stereo not shown) [Compound 12, 4-hydroxy-4,5-dimethyl-3-(pyridin-3-ylmethyl)-3,4-dihydro-2H-1,3-thiazine-2-thione] | 43.9 | 79.9 | 71 to 72 | 15.2 | 8.66 | – | – | – |
| OC1CCSC(=S)N1Cc1cccnc1 (stereo not shown) [Compound 9, 4-hydroxy-3-(pyridin-3-ylmethyl)-1,3-thiazinane-2-thione] | 20.3 | 38.9 | 56 to 57 | 61.3 | 79.5 | – | – | – |
| CS(=O)(=O)CCNCc1ccc(-c2ccc3ncnc(Nc4ccc(OCc5cccc(F)c5)c(Cl)c4)c3c2)o1 [Lapatinib, reference compound] | – | – | – | – | – | 4.35 | 42.4 | 19.6 |
| C[S+]([O-])CCSC(=S)NCc1ccco1 (stereo not shown) [Compound 7, 2-(methylsulfinyl)ethyl(furan-2-ylmethyl)dithiocarbamate] | 16 | 11.2 | 43 to 45 | 4.07 | -8.68 | – | – | – |
| COC(=O)CCSC(=S)NCc1ccco1 [Compound 2, 2-(methoxycarbonyl)ethyl(furan-2-ylmethyl)dithiocarbamate] | 16.4 | 19.3 | 50 to 52 | 3.8 | -1.69 | – | – | – |
| OC1CCSC(=S)N1Cc1ccco1 (stereo not shown) [Compound 1, 3-(furan-2-ylmethyl)-4-hydroxy-1,3-thiazinane-2-thione] | 20 | 28.4 | 42 to 43 | 20.1 | 43.1 | – | – | – |
